Laboratory results published in PubChem BioAssay (NCI).
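Assay format: 96-well plates, 48-hour exposure. Abbreviation: GI50, concentration required for 50% inhibition of growth. TGI is the concentration that stops growth completely.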

How the values were obtained:
Experiment in all cases: DTP human tumour cell line panel, 48 h
[1] = system: RXF 393 renal
[2] = system: KM12 colon
[3] = system: UO-31 renal
[4] = system: SF-295 CNS
[5] = system: OVCAR-4 ovarian
[6] = system: MALME-3M melanoma
[7] = system: SK-MEL-2 melanoma
[8] = system: IGROV1 ovarian
[9] = system: HOP-92 NSCLC
[10] = system: EKVX NSCLC

| Compound | TGI [1] | TGI [2] | TGI [3] | TGI [4] | TGI [5] | TGI [6] | TGI [7] | TGI [8] | TGI [9] | TGI [10] | GI50 [1] | GI50 [10] | GI50 [2] | GI50 [3] | GI50 [4] | GI50 [5] | GI50 [7] | GI50 [8] | GI50 [9] |
| --- | --- | --- | --- | --- | --- | --- | --- | --- | --- | --- | --- | --- | --- | --- | --- | --- | --- | --- | --- |
| O=C(N/C(=C\c1ccccc1[N+](=O)[O-])c1nc2ccccc2[nH]1)c1ccccc1 | > 100 µM | > 100 µM | > 100 µM | > 100 µM | > 100 µM | > 100 µM | > 100 µM | > 100 µM | > 100 µM | – | – | – | – | – | – | – | – | – | – |
| CC1SC(c2ccccc2)N(Nc2c3ccccc3nc3ccccc23)C1=O (stereo not drawn) | – | > 100 µM | 82.3 µM | > 100 µM | > 100 µM | > 100 µM | > 100 µM | > 100 µM | – | > 100 µM | – | – | – | – | – | – | – | – | – |
| COc1ccc(-c2cc(-c3ccccc3)n(C3OCC(OC(C)=O)C(OC(C)=O)C3OC(C)=O)c(=S)c2C#N)cc1 (stereo not drawn) | > 100 µM | > 100 µM | > 100 µM | > 100 µM | > 100 µM | > 100 µM | > 100 µM | > 100 µM | 53.6 µM | > 100 µM | – | – | – | – | – | – | – | – | – |
| COc1cc(-c2n/c(=C\c3c(O)[nH]c4ccc(Cl)cc34)cc3c2=Nc2ccccc2-3)cc(OC)c1OC | 3.33 µM | 5.61 µM | 2.72 µM | 10.2 µM | 1.78 µM | – | 4.9 µM | 4.09 µM | 3.32 µM | 18.7 µM | 1.63 µM | 3.59 µM | 1.72 µM | 1.29 µM | 3.31 µM | 0.423 µM | 2.21 µM | 0.685 µM | 1.32 µM |
| C=C(C)[C@@H]1CC[C@]2(C)CC[C@]3(C)[C@H](CC[C@@H]4[C@@]5(C)CC[C@H](OC(=O)c6ccccc6)C(C)(C)[C@@H]5CC[C@]43C)[C@@H]12 | – | > 100 µM | > 100 µM | > 100 µM | > 100 µM | > 100 µM | > 100 µM | > 100 µM | > 100 µM | > 100 µM | – | – | – | – | – | – | – | – | – |
| Nc1ccc2c(c1)C1=NNC(=O)CC1C2 (stereo not drawn) | > 100 µM | > 100 µM | > 100 µM | > 100 µM | > 100 µM | > 100 µM | > 100 µM | > 100 µM | > 100 µM | > 100 µM | – | – | – | – | – | – | – | – | – |
| CCn1nc(C)c2c1C(=O)NC(C)C(=O)N2 (stereo not drawn) | > 100 µM | – | > 100 µM | > 100 µM | > 100 µM | – | – | > 100 µM | > 100 µM | > 100 µM | – | – | – | – | – | – | – | – | – |
| COc1ccc(NS(=O)c2ccc(-c3ccccc3)cc2)cc1 (stereo not drawn) | > 100 µM | > 100 µM | > 100 µM | > 100 µM | – | > 100 µM | – | > 100 µM | – | > 100 µM | – | – | – | – | – | – | – | – | – |
